Experimental data taken from patent US6861428B2, “Water-soluble phenylpyridazine compounds and compositions containing the same” (Kowa Co., Ltd., priority 2001, dated 2005).
Where two headings read alike, the source gives them in different places.

What was measured:
Water solubility test = assay type: physicochemical; conditions: for Solubility (%): purified water, from amount of water required for dissolution
Experimental: Each sample compound was weighed in the amount shown in Table 3, to which purified water was added in 0.05 mL aliquots. The solubility (%) of the compound was determined based on the amount of water required for its dissolution.

[1] = Oral absorbability test on rats and/or mice; assay type: in vivo; conditions: orally administered to mice and/or rats, as in Experiment 3, FIGS. 2 to 6
Experimental: (§1) The compound of Example 83 and the comparative compound 3 were suspended at 2 mg/mL with a 0.5% MC solution in mortars, respectively, and were orally administered to male SD rats at 10 mg/5 mL/kg. Upon elapsed time of 0.25, 0.5, 1, 2, 4, 6 and 8 hours after the administration, blood samples were collected and then centrifuged to provide plasma samples. The plasma levels of the respective compounds were determined by HPLC. […] The compound of Example 83 is, therefore, useful as an orally dosable medicine.
In a similar manner as in Experiment 3, test compounds of Examples 23, 25, 143, 193, 245, 246, 247, 248 and 249 were orally administered to mice and/or rats to test their oral absorbability.

[2] = test system: interleukin-1β production; assay: Inhibitory activity against interleukin-1β production (LPS-stimulated HL-60 cells, ELISA); assay type: cell-based; conditions: lipopolysaccharide 10 μg/mL, 3 days, Table 1, read-out: IL-1β production inhibiting activity IC50
Experimental: Inhibitory Activity Against Interleukin-1β Production
HL-60 cells were cultured for 4 days until confluence on RPMI 1640 medium with 10% fetal bovine serum (FBS) added thereto. The medium was centrifuged. The supernatant was discarded, and the cells were then suspended at 1×10^6 cells/mL on RPMI 1640 medium with 3% FBS, and lipopolysaccharide was added to give a final concentration of 10 μg/mL. The culture was inoculated at 1 mL/well to a 24-well plate. A sample compound was added at 1 μL/well, followed by culturing for 3 days. Three days later, the amount of interleukin-1β in each culture was determined by ELISA. Each IC50 value was determined by a comparison in yield with a control to which no test sample was added.

[3] = Oral absorbability test on rats; assay type: in vivo; conditions: male SD rats, oral 10 mg/5 mL/kg, suspension in 0.5% MC, 0.25-8 hours, FIG. 1
Experimental: as §1

Solubility (%) (Water solubility test) | Oral absorbability [1] | IC50 ([2]; Homo sapiens, 72 h) | Dissolution in amount of added water (Water solubility test; 100 mL purified water added) | Oral absorption (plasma level by HPLC) [3] | IC50 [2] | melting point | SMILES
0.03% | good absorbability |  |  |  |  |  | COc1ccc(-c2cc(CN3CCN(CCO)CC3)c(=O)n(CC=Cc3ccc(Cl)cc3)n2)cc1F.Cl.Cl [Example 249, 2-(4-chlorocinnamyl)-6-(3-fluoro-4-methoxyphenyl)-4-[4-(2-hydroxyethyl)-1-piperazinyl]methyl-2H-pyridazin-3-one dihydrochloride]
10% | good absorbability |  |  |  |  |  | Cc1cc(-c2cc(CN3CCN(C)CC3)c(=O)n(CCCc3ccc(Cl)cc3)n2)ccc1F.Cl.Cl [Example 247, 2-[3-(4-chlorophenyl)propyl]-6-(4-fluoro-3-methylphenyl)-4-(4-methyl-1-piperazinyl)methyl-2H-pyridazin-3-one dihydrochloride]
5% | good absorbability |  |  |  |  |  | COc1ccc(-c2cc(CN3CCNCC3)c(=O)n(Cc3ccc(F)cc3)n2)cc1F.Cl.Cl [Example 193, 2-(4-fluorobenzyl)-6-(3-fluoro-4-methoxyphenyl)-4-(1-piperazinyl)methyl-2H-pyridazin-3-one dihydrochloride]
0.4% | good absorbability | 2.74 µM |  |  |  |  | COc1ccc(-c2cc(CN)c(=O)n(CC3CC3)n2)cc1F.Cl [Example 25, 4-aminomethyl-2-cyclopropylmethyl-6-(3-fluoro-4-methoxyphenyl)-2H-pyridazin-3-one hydrochloride]
<0.001% |  |  | (insoluble) | no substantial absorption |  |  | CNC(=O)c1cc(-c2ccc(OC)c(F)c2)nn(CC2CC2)c1=O [compound 3, reference compound]
0.06% | good absorbability |  |  |  |  |  | COc1ccc(-c2cc(CN3CCN(C)CC3)c(=O)n(CC=Cc3ccc(Cl)cc3)n2)cc1F.Cl.Cl [Example 248, 2-(4-chlorocinnamyl)-6-(3-fluoro-4-methoxyphenyl)-4-(4-methyl-1-piperazinyl)methyl-2H-pyridazin-3-one dihydrochloride]
 |  | 0.27 µM |  | good absorption |  |  | Cc1cc(-c2cc(CN3CCN(C)CC3)c(=O)n(CC(C)C)n2)ccc1F.Cl.Cl [Example 83, 6-(4-fluoro-3-methylphenyl)-2-isobutyl-4-(4-methyl-1-piperazinyl)methyl-2H-pyridazin-3-one dihydrochloride]
10% | good absorbability |  |  |  | 12.3 µM |  | COc1ccc(-c2cc(CN(CCO)CCO)c(=O)n(CC3CC3)n2)cc1F.Cl [Example 23, 4-N,N-bis(2-hydroxyethyl)aminomethyl-2-cyclopropylmethyl-6-(3-fluoro-4-methoxyphenyl)-2H-pyridazin-3-one hydrochloride]
10% | good absorbability | 8.55 µM |  |  |  | 229.7 to 243.3 °C (dec.) | Cc1cc(-c2cc(CN3CCN(C)CC3)c(=O)n(CC=Cc3ccc(Cl)cc3)n2)ccc1F.Cl.Cl [Example 143, 2-(4-chlorocinnamyl)-6-(4-fluoro-3-methylphenyl)-4-(4-methyl-1-piperazinyl)methyl-2H-pyridazin-3-one dihydrochloride]
2% | good absorbability |  |  |  |  |  | COc1ccc(-c2cc(CN(C)C)c(=O)n(Cc3ccc(F)c(F)c3)n2)cc1F.Cl [Example 246, 2-(3,4-difluorobenzyl)-4-dimethylaminomethyl-6-(3-fluoro-4-methoxyphenyl)-2H-pyridazin-3-one hydrochloride]
